Assay results as given in PMC3923778 (PLoS Currents, 2014).
Read-outs that look alike come from different tables or passages of the source.

How the values were obtained:
PDE9 = system: PDE9; set-up: method as in PMID 9216839, PMID 17697115, PMID 10618442, PMID 8961086, PMID 7581878; conditions: ref [12], [23], [25], [27], [28], read-out: previously reported potencies; cited from earlier work
aggregated HTT = experiment: Seprion ligand based ELISA of aggregate load; assay type: in vivo, mouse; conditions: chronic administration; 13 weeks of age; lower dose group study
Source text: Aggregates were captured in Seprion ligand coated plates (Microsens) and detected using the S830 sheep polyclonal or MW8 mouse monoclonal antibodies as described.

[1] = Pharmacokinetic analysis in mice; assay type: in vivo, mouse; conditions: for half-life: read-out: Half-life (t1/2) (converted); for Tmax: read-out: Observed Tmax
Description: All PK studies were conducted at Charles River Laboratories (CRL), MA, USA. CRL is fully accredited by the Association for Assessment and Accreditation of Laboratory Animal Care International (AAALAC), and is registered with the United States Department of Agriculture (USDA). All procedures involving animals were conducted humanely and were performed by trained and experienced personnel. The individual study protocols were reviewed and approved by the IACUC of CRL. A total of 48 male C57BL/6NCRL mice were used. Animals were acclimated to the study room environment for 5 days prior to dose administration. Mice were individually housed in micro isolator cages, and were kept on a 12/12 hour light/dark cycle except when interrupted for study procedures. Mice were fed LabDiet Certified Rodent Diet 5002 food ad libitum, except during fasting prior to dose administration, and had access to water ad libitum. […] For the iv doses, the compound was formulated at 1 mg/mL as a dose solution in 2% […] (NMP), 14% Propylene Glycol (PG), 14% Solutol HS–15, 70% 50mM Citrate, pH 4.5 , by volume. For the po dose, the compound was formulated at 1 mg/mL as a solution in 30% PG, 20% Solutol HS–15, 50% 50mM Citrate, pH 4.5, by volume. Aliquots (25 μL) of samples, plasma, and tissue blanks (containing internal standard only), plasma and tissue double blanks (without internal standard), control blanks (solvent only), diluted dose (dilute in plasma from the study species prior to extraction) and matrix calibration standards were dispensed into 96-well plates. Extracting solution with internal standard (100 μL) was added to all samples except matrix double blanks and solvent blanks. Extracting solution without internal standard (100 μL) was added to matrix double blanks. Samples were vortexed and centrifuged for 5 minutes, and the supernatants were transferred to a new plate. An aliquot (50 μL) of Milli-Q water was added to the samples, which were covered and vortexed for 5 minutes. […] Reserpine was used as an internal standard in the LC-MS/MS assay. Mice were divided into four groups of 3 animals each. Two blood samples were collected from each mouse following dosing; the second collection was a terminal sample and brains were also collected at that time as follows: Group 1 at 0.083 and 0.5 hr, Group 2 at 0.25 and 2 hr, Group 3 at 1 and 8 hr and Group 4 at 4 and 24 hr., and brain tissue time points at 0.5, 2, 8 and 24 hr. Non-compartmental pharmacokinetic analyses of the plasma concentration time course were performed using WinNonlin, version 5.2 (Pharsight Corp., Mountain View, California).

[2] = Body weight during chronic dosing in R6/2 mice; assay type: in vivo, mouse; conditions: BID, ANOVA
Description: Body weight was measured starting at the age of 4 weeks and a further two times per week on the same day until the end of the study. This was done just prior to animals receiving doses for those days.
All values are presented as mean ± Standard Error of Mean (SEM), and differences are considered to be statistically significant at the p < 0.05 level. Statistical analysis was performed using StatsDirect statistical software. Differences between group means were analyzed by 1-way-ANOVA followed by Dunnett’s test (comparison to the control (=vehicle treated TG mice) group). The acquisition of the Cued two-choice swim test was analyzed using Fisher’s exact test.

R6/2 mice = experiment: Survival study in R6/2 mice; assay type: in vivo, mouse; conditions: for Mean (±SEM) Survival Time / Medial Survival Time: R6/2 mice
[3] = male, C57BL/6NCRL, mouse, 5 mg/kg, Brain, IV 5.0 (mg eq./kg)
[4] = male, C57BL/6NCRL, mouse, 5 mg/kg, Plasma, IV 5.0 (mg eq./kg)

CN1C(=O)c2nc(Cc3ccc(C(F)(F)F)cc3)[nH]c2N2C1=N[C@H]1CCC[C@H]12 [SCH-51866, (+)-cis-5,6a,7,8,9,9a-hexahydro-2-[4-[trifluro-methyl]phenylmethyl]-5-methyl-cylopent[4,5]imidazo [2,1-b]purin-4(3H)one]
IC50 (PDE9): 44 µM | aggregate load in the cortex and hippocampus (Seprion ligand ELISA) (aggregated HTT): no effect | brain concentration at Tmax exceeds the biochemical IC50 for PDE1 ([1]; after oral administration): ~ 7 fold | time through which concentrations in brain were measurable for all animals ([1]; following dosing): 8 h | AUC(0-inf) [1, 3]: 8.23 µM·h | AUC(0-t) [1, 3]: 8.18 µM·h | half-life [1, 3]: 64.8 min | Cmax ([1]; male, C57BL/6NCRL, mouse, 5 mg/kg, Brain, IV 5.0 (mg eq./kg), read-out: Observed Cmax): 3560 nM | AUC(0-inf) [1, 4]: 7.35 µM·h | AUC(0-t) [1, 4]: 7.31 µM·h | half-life [1, 4]: 232 min | MRT ([1]; male, C57BL/6NCRL, mouse, 5 mg/kg, Plasma, IV 5.0 (mg eq./kg), read-out: Mean Residence Time (MRT)): 2.57 h | clearance ([1]; male, C57BL/6NCRL, mouse, 5 mg/kg, Plasma, IV 5.0 (mg eq./kg), read-out: Plasma Clearance (CLp) (converted)): 29.2 mL/min/kg | Vd ([1]; male, C57BL/6NCRL, mouse, 5 mg/kg, Plasma, IV 5.0 (mg eq./kg), read-out: Volume of Distribution at Steady State (Vdss)): 4.48 L/kg | AUC(0-t) ([1]; male, C57BL/6NCRL, mouse, 10 mg/kg, Brain, PO 10.0 (mg eq./kg)): 2.2 µM·h | Cmax ([1]; male, C57BL/6NCRL, mouse, 10 mg/kg, Brain, PO 10.0 (mg eq./kg), read-out: Observed Cmax): 475 nM | Tmax ([1]; male, C57BL/6NCRL, mouse, brain, iv, 5 mg/kg, Brain, IV 5.0 (mg eq./kg)): 0.5 h | Kp ([1]; male, C57BL/6NCRL, mouse, brain, oral, 10 mg eq./kg, mice, read-out: Brain-to-plasma concentration ratios): 0.1 to 0.4 | Tmax ([1]; male, C57BL/6NCRL, mouse, brain, po, 10 mg/kg, Brain, PO 10.0 (mg eq./kg)): 2 h | Cmax ([1]; male, C57BL/6NCRL, mouse, plasma, 10 mg/kg po in mice, read-out: plasma Cmax exposure): 2400 nM | Body Weight: p vs Vehicle-treated R6/2 mice ([2]; Age Week 4, 10 mg/kg p.o.): ANOVA: p=0.878 | Body Weight: p vs Vehicle-treated R6/2 mice ([2]; Age Week 4, 30 mg/kg p.o.): ANOVA: p=0.878 | Body Weight: p vs Vehicle-treated R6/2 mice ([2]; Age Week 5, 10 mg/kg p.o.): ANOVA: p=0.762 | Body Weight: p vs Vehicle-treated R6/2 mice ([2]; Age Week 5, 30 mg/kg p.o.): ANOVA: p=0.762 | Body Weight: p vs Vehicle-treated R6/2 mice ([2]; Age Week 6, 10 mg/kg p.o.): ANOVA: p=0.934 | Body Weight: p vs Vehicle-treated R6/2 mice ([2]; Age Week 6, 30 mg/kg p.o.): ANOVA: p=0.934 | Body Weight: p vs Vehicle-treated R6/2 mice ([2]; Age Week 7, 10 mg/kg p.o.): ANOVA: p=0.766 | Body Weight: p vs Vehicle-treated R6/2 mice ([2]; Age Week 7, 30 mg/kg p.o.): ANOVA: p=0.766 | Body Weight: p vs Vehicle-treated R6/2 mice ([2]; Age Week 8, 10 mg/kg p.o.): ANOVA: p=0.926 | Body Weight: p vs Vehicle-treated R6/2 mice ([2]; Age Week 8, 30 mg/kg p.o.): ANOVA: p=0.926 | Body Weight: p vs Vehicle-treated R6/2 mice ([2]; Age Week 9, 10 mg/kg p.o.): ANOVA: p=0.886 | Body Weight: p vs Vehicle-treated R6/2 mice ([2]; Age Week 9, 30 mg/kg p.o.): ANOVA: p=0.886 | Body Weight: p vs Vehicle-treated R6/2 mice ([2]; Age Week 10, 10 mg/kg p.o.): ANOVA: p=0.969 | Body Weight: p vs Vehicle-treated R6/2 mice ([2]; Age Week 10, 30 mg/kg p.o.): ANOVA: p=0.969 | Body Weight: p vs Vehicle-treated R6/2 mice ([2]; Age Week 11, 10 mg/kg p.o.): ANOVA: p=0.891 | Body Weight: p vs Vehicle-treated R6/2 mice ([2]; Age Week 11, 30 mg/kg p.o.): ANOVA: p=0.891 | Body Weight: p vs Vehicle-treated R6/2 mice ([2]; Age Week 12, 10 mg/kg p.o.): ANOVA: p=0.774 | Body Weight: p vs Vehicle-treated R6/2 mice ([2]; Age Week 12, 30 mg/kg p.o.): ANOVA: p=0.774 | Body Weight: p vs Vehicle-treated R6/2 mice ([2]; Age Week 13, 10 mg/kg p.o.): ANOVA: p=0.855 | Body Weight: p vs Vehicle-treated R6/2 mice ([2]; Age Week 13, 30 mg/kg p.o.): ANOVA: p=0.855 | Body Weight: p vs Vehicle-treated R6/2 mice ([2]; Age Week 14, 10 mg/kg p.o.): ANOVA: p=0.878 | Body Weight: p vs Vehicle-treated R6/2 mice ([2]; Age Week 14, 30 mg/kg p.o.): ANOVA: p=0.878 | Body Weight: p vs Vehicle-treated R6/2 mice ([2]; Age Week 15, 10 mg/kg p.o.): ANOVA: p=0.989 | Body Weight: p vs Vehicle-treated R6/2 mice ([2]; Age Week 15, 30 mg/kg p.o.): ANOVA: p=0.989 | Body Weight: p vs Vehicle-treated R6/2 mice ([2]; Age Week 16, 10 mg/kg p.o.): ANOVA: p=0.651 | Body Weight: p vs Vehicle-treated R6/2 mice ([2]; Age Week 16, 30 mg/kg p.o.): ANOVA: p=0.651 | Body Weight: p vs Vehicle-treated R6/2 mice ([2]; Age Week 17, 10 mg/kg p.o.): ANOVA: p=0.817 | Body Weight: p vs Vehicle-treated R6/2 mice ([2]; Age Week 17, 30 mg/kg p.o.): ANOVA: p=0.817 | Body Weight: p vs Vehicle-treated R6/2 mice ([2]; Age Week 18, 10 mg/kg p.o.): ANOVA: p=0.644 | Body Weight: p vs Vehicle-treated R6/2 mice ([2]; Age Week 18, 30 mg/kg p.o.): ANOVA: p=0.644 | Body Weight: p vs Vehicle-treated R6/2 mice ([2]; Age Week 19, 10 mg/kg p.o.): ANOVA: p=0.975 | Body Weight: p vs Vehicle-treated R6/2 mice ([2]; Age Week 19, 30 mg/kg p.o.): ANOVA: p=0.975 | Body Weight: p vs Vehicle-treated R6/2 mice ([2]; Age Week 20, 10 mg/kg p.o.): ANOVA: p=0.900 | Body Weight: p vs Vehicle-treated R6/2 mice ([2]; Age Week 20, 30 mg/kg p.o.): ANOVA: p=0.900 | Body Weight: p vs Vehicle-treated R6/2 mice ([2]; Age Week 21, 10 mg/kg p.o.): ANOVA: p=0.996 | Body Weight: p vs Vehicle-treated R6/2 mice ([2]; Age Week 21, 30 mg/kg p.o.): ANOVA: p=0.996 | Generalized Wilcoxon (Peto-Prentice) Test, Chi-square for equiv. of death rates p (R6/2 mice; 10 mg/kg (p.o., BID) column): Chi-square for equiv. of death rates p=0.543 | Log-rank (Peto) Test, Chi-square for equiv. of death rates p (R6/2 mice; 10 mg/kg (p.o., BID) column): 0.555 | Mean (±SEM) Survival Time (R6/2 mice; 10 mg/kg (p.o., BID)): 115 (±7) days | Medial Survival Time (R6/2 mice; 10 mg/kg (p.o., BID)): 110 days | Generalized Wilcoxon (Peto-Prentice) Test, Chi-square for equiv. of death rates p (R6/2 mice; 30 mg/kg (p.o., BID) column): Chi-square for equiv. of death rates p=0.543 | Log-rank (Peto) Test, Chi-square for equiv. of death rates p (R6/2 mice; 30 mg/kg (p.o., BID) column): 0.555 | Mean (±SEM) Survival Time (R6/2 mice; 30 mg/kg (p.o., BID)): 122 (±5) days | Medial Survival Time (R6/2 mice; 30 mg/kg (p.o., BID)): 121 days | Survival, effect in words (R6/2 mice; vs R6/2 vehicle-treated animals): no survival benefit
